Reference: publication PMC5315738 (Clinical Pharmacokinetics, 2016)
Read-outs that look alike come from different tables or passages of the source.

Legend:
human serum albumin = conditions: 45 g/L albumin, in vitro; cited from earlier work
[1] = cited from earlier work
[2] = type: in vivo; conditions: human, plasma, oral
HER2 = conditions: HER2, cell-free; cited from earlier work
ErbB4 = conditions: ErbB4, cell-free; cited from earlier work
[3] = system: EGFR, HER2, ErbB4 phosphorylation and ErbB3 transphosphorylation; conditions: wide variety of cell lines; cited from earlier work
P-gp [4] = conditions: read-out: inhibition constant (K i), digoxin transport; cited from earlier work
P-gp [5] = conditions: Caco-2 monolayers and human P-gp-expressing LLC-PK1 cells; cited from earlier work
BCRP = conditions: in vitro; cited from earlier work
[6] = system: OATP, OAT and OCT drug transporters; conditions: transfected HEK293 cell lines; cited from earlier work
[7] = physiological pH range of 1–7.5; cited from earlier work
[8] = cited from earlier work; remark: listed apart in the source
[9] = cited from earlier work; remark: listed apart in the source
[10] = system: cytochrome P450 (CYP) isoenzymes; conditions: human hepatocytes and human liver microsomes; ref Boehringer Ingelheim unpublished data, 26; cited from earlier work
[11] = cited from earlier work; remark: listed apart in the source
[12] = minipigs, cited from earlier work
[13] = mouse; ref Boehringer Ingelheim unpublished data, 25, 28; cited from earlier work
[14] = rabbit; ref Boehringer Ingelheim unpublished data, 25, 28; cited from earlier work
[15] = all animal species (rabbits, rats, minipigs and mice), 0.05–0.5 μM; cited from earlier work
[16] = in vitro and in vivo toxicology studies; cited from earlier work
[17] = cited from earlier work; for V z/F, gMean / gMean terminal half-life: 10–100 mg doses
[18] = PopPK, cited from earlier work
[19] = after a high-fat, high-caloric meal; cited from earlier work
[20] = human; cited from earlier work
[21] = cited from earlier work; remark: listed apart in the source
[22] = cited from earlier work; remark: listed apart in the source
[23] = cited from earlier work; remark: listed apart in the source
[24] = a P-gp substrate; cited from earlier work
[25] = cited from earlier work; remark: listed apart in the source
[26] = LUX-Lung 3, cited from earlier work
[27] = afatinib 20 mg, ritonavir 200 mg twice daily administered 1 h before afatinib, healthy subjects

SMILES: CN(C)C/C=C/C(=O)Nc1cc2c(Nc3ccc(F)c(Cl)c3)ncnc2cc1O[C@H]1CCOC1 [afatinib dimaleate]
- binding to isolated human serum albumin (human serum albumin): 79.6%
- dose recovered in the urine ([1]; within 216 h after oral dose of 15 mg [14C]-radiolabelled afatinib dimaleate): 4.29%
- dose recovered in the faeces ([1]; within 312 h after oral dose of 15 mg [14C]-radiolabelled afatinib dimaleate): 85.4%

SMILES: CN(C)CC=CC(=O)Nc1cc2c(Nc3ccc(F)c(Cl)c3)ncnc2cc1O[C@H]1CCOC1 [afatinib, N-[4-[(3-chloro-4-fluorophenyl)amino]-7-[[(3S)-tetrahydro-3-furanyl]oxy]-6-quinazolinyl]-4-(dimethylamino)-2-butenamide]
- half-life [2]: ~37 h
- potency to inhibit kinase (HER2): nanomolar potency
- potency to inhibit kinase (ErbB4): nanomolar potency
- potency of inhibition of phosphorylation in cells [3]: low nanomolar range
- Ki (P-gp [4]): 3.4 µM
- substrate of the efflux transporter P-gp (P-gp [5]): P-gp substrate
- substrate and inhibitor of the efflux transporter BCRP (BCRP): substrate and inhibitor
- in vitro transport of afatinib by OATP, OAT, OCT [6]: no relevant in vitro transport
- solubility [7]: highly soluble
- passive permeability through cell membranes [8]: high passive permeability
- BCS class [9]: BCS class 1 or 3
- potential to inhibit or induce CYP isoenzymes [10]: low potential to inhibit or induce
- excretion of unchanged parent compound ([11]; rat, ref Boehringer Ingelheim unpublished data, 25, 28): > 50%
- volume of distribution ([11]; rats, intravenous dosing): 16.2 L/kg
- volume of distribution ([12]; intravenous dosing): 12.4 L/kg
- excretion of unchanged parent compound ([12]; ref Boehringer Ingelheim unpublished data, 25, 28): > 72%
- excretion of unchanged parent compound [13]: > 60%
- excretion of unchanged parent compound [14]: > 87%
- Mean plasma protein binding [15]: > 92%
- genotoxicity [16]: no evidence of genotoxicity
- time to achieve steady-state ([17]; once-daily dosing): ≤ 8 days
- V z/F, gMean ([17]; single doses): 1940 L
- gMean terminal half-life ([17]; single doses): 21 h
- Overall drug clearance (CL/F), gMean ([17]; single doses): 1050 mL/min
- V z/F, gMean ([17]; steady state): 2770 L
- gMean terminal half-life ([17]; steady state): 37 h
- Overall drug clearance (CL/F), gMean ([17]; steady state): 898 mL/min
- increase in exposure for CLCR 43 mL/min ([18]; 2.5th percentile): 27.8%
- increase in exposure in female patients ([18]; accounting for all other covariate effects): 15%
- decrease in exposure for food intake ([18]; food intake less than 3 h before or less than 1 h after afatinib administration): 26%
- reduction of AUC∞ by food [19]: ~39%
- reduction of C max by food [19]: approximately 50%
- plasma protein bound [20]: approximately 95%
- urinary excretion of afatinib-related radioactivity ([1]; ADME study): < 5%
- unchanged drug excreted in urine ([1]; approximate): approximately 5%
- effect of renal impairment on plasma protein binding [21]: no effect
- increase in AUC in patients with severe renal impairment ([21]; severe renal impairment): approximately 50%
- effect of hepatic impairment on plasma protein binding [22]: no effect
- increase in afatinib exposure (AUC∞) by ritonavir [23, 27]: 48%
- increase in afatinib exposure (C max) by ritonavir [23, 27]: 39%
- change in afatinib exposure by ritonavir ([23]; afatinib 40 mg, ritonavir taken concomitantly or 6 h after afatinib): did not relevantly change
- change in exposure on concomitant administration with sirolimus [24]: did not result in a clinically relevant change in exposure
- decrease of mean time-matched QTcF between baseline and day 14 ([25]; afatinib 50 mg, over 1–24 h following administration, non-significant): 0.3 ms
- proarrhythmic potential ([25]; dose of 50 mg): does not have proarrhythmic potential
- interpatient variability in exposure (gCV) ([26]; day 1 of cycle three): 67%
- interpatient variability in exposure (gCV) ([26]; day 1 of cycle two): 85%
